According to the supplement of paper PMC7287046:

Key:
Details in all cases: exposure time: 72 h
U87 [1] = system: U87
Protocol: (§1)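 Glioma cell lines and primary cultures were treated with single drugs in a nine-step threefold dilution series, about 72 h. Viability was read by CellTiter-Glo and normalised to untreated controls. Absolute IC50 was fitted in GraphPad Prism; values beyond the tested dose range are censored at the block's top or lowest dose.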

SNB75 [2] = system: SNB75
Protocol: as §1

KNS42 [3] = system: KNS42
Protocol: as §1

SF268 [4] = system: SF268
Protocol: as §1

T98 [5] = system: T98
Protocol: as §1

CAS-1 = system: CAS-1
Protocol: as §1

SF539 [6] = system: SF539
Protocol: as §1

U251 [7] = system: U251
Protocol: as §1

U118 [8] = system: U118
Protocol: as §1

AM38 [9] = system: AM38
Protocol: as §1

U87 [10] = test: HSA synergy score (Combenefit); higher = more synergy
Method in brief: (§2)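 Glioma cell lines in 96-well plates received pairs of drugs 24 h after plating, with an untreated control repeated sixfold. Each drug's top dose was set at its own IC50. The doses ran in 6 × 6 matrices of twofold steps, and readings taken three days later were made at least in triplicate. Viability by CellTiter-Glo, as percent of DMSO controls, was normalised and scored for Loewe, Bliss and highest single agent synergy in Combenefit.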

T98G [11] = test: as above
Method in brief: as §2

SNB75 [12] = test: as above
Method in brief: as §2

AM-38 [13] = test: as above
Method in brief: as §2

SF268 [14] = test: as above
Method in brief: as §2

SF539 [15] = test: as above
Method in brief: as §2

U251 [16] = test: as above
Method in brief: as §2

U118 [17] = test: as above
Method in brief: as §2

KNS-42 [18] = test: as above
Method in brief: as §2

U87 [19] = test: Chou-Talalay combination index (dimensionless); higher = less synergy (more antagonism)
Method in brief: (§3)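 For combination testing, glioma cell lines were seeded at optimal density in 96-well plates, or in low-adhesion plates for primary cultures. Treatment began after 24 h with two drugs crossed in a 6 × 6 matrix of twofold dilutions, alongside an untreated control repeated sixfold, and CellTiter-Glo was read three days later at least in triplicate. Dilutions of each drug started from its single-drug IC50. Viability relative to DMSO controls, in percent, fed a median-effect calculation of the Chou–Talalay combination index.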

SNB75 [20] = test: as above
Method in brief: as §3

KNS42 [21] = test: as above
Method in brief: as §3

SF268 [22] = test: as above
Method in brief: as §3

T98 [23] = test: as above
Method in brief: as §3

SF539 [24] = test: as above
Method in brief: as §3

U251 [25] = test: as above
Method in brief: as §3

U118 [26] = test: as above
Method in brief: as §3

AM38 [27] = test: as above
Method in brief: as §3

U87 [28] = test: Bliss synergy score (Combenefit); higher = more synergy; extreme values may be limits of the assay
Method in brief: as §2

T98G [29] = test: as above
Method in brief: as §2

SNB75 [30] = test: as above
Method in brief: as §2

AM-38 [31] = test: as above
Method in brief: as §2

SF268 [32] = test: as above
Method in brief: as §2

SF539 [33] = test: as above
Method in brief: as §2

U251 [34] = test: as above
Method in brief: as §2

U118 [35] = test: as above
Method in brief: as §2

KNS-42 [36] = test: as above
Method in brief: as §2

U87 [37] = test: Loewe synergy score (Combenefit); higher = more synergy; extreme values may be limits of the assay
Method in brief: as §2

T98G [38] = test: as above
Method in brief: as §2

SNB75 [39] = test: as above
Method in brief: as §2

AM-38 [40] = test: as above
Method in brief: as §2

SF268 [41] = test: as above
Method in brief: as §2

SF539 [42] = test: as above
Method in brief: as §2

U251 [43] = test: as above
Method in brief: as §2

U118 [44] = test: as above
Method in brief: as §2

KNS-42 [45] = test: as above
Method in brief: as §2

SMILES: Cc1cc([C@@H](C)Nc2ccccc2C(=O)O)c2nc(N3CCOCC3)cc(=O)n2c1 [AZD6482]
- IC50 (absolute, viability) (U87 [1]): 6.69 µM
- IC50 (absolute, viability) (SNB75 [2]): 9.91 µM
- IC50 (absolute, viability) (KNS42 [3]): 41.4 µM
- IC50 (absolute, viability) (SF268 [4]): 13.9 µM
- IC50 (absolute, viability) (T98 [5]): 8.39 µM
- IC50 (absolute, viability) (CAS-1): 3.15 µM
- IC50 (absolute, viability) (SF539 [6]): 4.86 µM
- IC50 (absolute, viability) (U251 [7]): 5.07 µM
- IC50 (absolute, viability) (U118 [8]): 22 µM
- IC50 (absolute, viability) (AM38 [9]): 8.35 µM

SMILES: CO[C@H]1C[C@@H]2CC[C@@H](C)[C@@](O)(O2)C(=O)C(=O)N2CCCC[C@H]2C(=O)O[C@H]([C@H](C)C[C@@H]2CC[C@@H](O)[C@H](OC)C2)CC(=O)[C@H](C)/C=C(\C)[C@@H](O)[C@@H](OC)C(=O)[C@H](C)C[C@H](C)/C=C/C=C/C=C/1C [Rapamycin]
- IC50 (absolute, viability) (SNB75 [2]): > 6.6 µM
- IC50 (absolute, viability) (KNS42 [3]): > 6.6 µM
- IC50 (absolute, viability) (T98 [5]): < 0.00302 µM
- IC50 (absolute, viability) (SF539 [6]): < 0.00302 µM
- IC50 (absolute, viability) (U118 [8]): > 6.6 µM
- IC50 (absolute, viability) (AM38 [9]): < 0.00302 µM

SMILES: CC(=O)O[C@@]12CO[C@@H]1C[C@H](O)[C@@]1(C)C(=O)[C@H](O)C3=C(C)[C@@H](OC(=O)[C@H](O)[C@@H](NC(=O)OC(C)(C)C)c4ccccc4)C[C@@](O)([C@@H](OC(=O)c4ccccc4)[C@H]21)C3(C)C [Docetaxel]
- IC50 (absolute, viability) (U87 [1]): 0.00273 µM
- IC50 (absolute, viability) (SNB75 [2]): 0.00167 µM
- IC50 (absolute, viability) (KNS42 [3]): 0.00438 µM
- IC50 (absolute, viability) (SF268 [4]): 0.00231 µM
- IC50 (absolute, viability) (T98 [5]): 0.000818 µM
- IC50 (absolute, viability) (CAS-1): 0.0437 µM
- IC50 (absolute, viability) (SF539 [6]): 0.000628 µM
- IC50 (absolute, viability) (U251 [7]): 6.04e-05 µM
- IC50 (absolute, viability) (U118 [8]): 0.0101 µM
- IC50 (absolute, viability) (AM38 [9]): 0.00128 µM

SMILES: CCC(=O)N1CCN(c2ccc(-n3c(=O)ccc4cnc5ccc(-c6cnc7ccccc7c6)cc5c43)cc2C(F)(F)F)CC1 [Torin1]
- IC50 (absolute, viability) (U87 [1]): 0.0174 µM
- IC50 (absolute, viability) (SNB75 [2]): 0.0191 µM
- IC50 (absolute, viability) (KNS42 [3]): 0.434 µM
- IC50 (absolute, viability) (SF268 [4]): 0.0746 µM
- IC50 (absolute, viability) (T98 [5]): 0.0251 µM
- IC50 (absolute, viability) (CAS-1): 0.0285 µM
- IC50 (absolute, viability) (SF539 [6]): 0.028 µM
- IC50 (absolute, viability) (U251 [7]): 0.199 µM
- IC50 (absolute, viability) (U118 [8]): 0.0274 µM
- IC50 (absolute, viability) (AM38 [9]): 0.00418 µM

SMILES: N#CC(c1ccnc(NCCc2cccnc2)n1)c1nc2ccccc2s1 (centres undefined)
- IC50 (absolute, viability) (U87 [1]): 24.5 µM
- IC50 (absolute, viability) (SNB75 [2]): 13.1 µM
- IC50 (absolute, viability) (KNS42 [3]): 27.3 µM
- IC50 (absolute, viability) (SF268 [4]): 7.05 µM
- IC50 (absolute, viability) (T98 [5]): 7.19 µM
- IC50 (absolute, viability) (SF539 [6]): 3.71 µM
- IC50 (absolute, viability) (U251 [7]): 11.3 µM
- IC50 (absolute, viability) (U118 [8]): 20.1 µM
- IC50 (absolute, viability) (AM38 [9]): 10 µM

SMILES: C[C@@H](Oc1cc(-c2cnn(C3CCNCC3)c2)cnc1N)c1c(Cl)ccc(F)c1Cl [Crizotinib]
- IC50 (absolute, viability) (U87 [1]): 3.63 µM
- IC50 (absolute, viability) (KNS42 [3]): 25 µM
- IC50 (absolute, viability) (SF268 [4]): 0.0296 µM
- IC50 (absolute, viability) (T98 [5]): 1.88 µM
- IC50 (absolute, viability) (CAS-1): > 50 µM
- IC50 (absolute, viability) (SF539 [6]): < 0.0229 µM
- IC50 (absolute, viability) (U251 [7]): 0.33 µM
- IC50 (absolute, viability) (U118 [8]): < 0.0229 µM

SMILES: CCOc1nc(NC(=O)Cc2cc(OC)ccc2OC)cc(N)c1C#N [JNK inhibitor VIII]
- IC50 (absolute, viability) (U87 [1]): 12 µM
- IC50 (absolute, viability) (SNB75 [2]): 8.38 µM
- IC50 (absolute, viability) (KNS42 [3]): 36.5 µM
- IC50 (absolute, viability) (SF268 [4]): 21.1 µM
- IC50 (absolute, viability) (T98 [5]): 6.36 µM
- IC50 (absolute, viability) (CAS-1): 20.2 µM
- IC50 (absolute, viability) (SF539 [6]): 7.09 µM
- IC50 (absolute, viability) (U251 [7]): 48.7 µM
- IC50 (absolute, viability) (U118 [8]): 28.8 µM
- IC50 (absolute, viability) (AM38 [9]): 15.8 µM

SMILES: Nc1ccn([C@@H]2O[C@H](CO)[C@@H](O)C2(F)F)c(=O)n1 [Gemcitabine] + CO[C@H]1C[C@@H]2CC[C@@H](C)[C@@](O)(O2)C(=O)C(=O)N2CCCC[C@H]2C(=O)O[C@H]([C@H](C)C[C@@H]2CC[C@@H](O)[C@H](OC)C2)CC(=O)[C@H](C)/C=C(\C)[C@@H](O)[C@@H](OC)C(=O)[C@H](C)C[C@H](C)/C=C/C=C/C=C/1C [Rapamycin]
- HSA synergy score (U87 [10]): 10
- HSA synergy score (T98G [11]): 1.52
- HSA synergy score (SNB75 [12]): 4.52
- HSA synergy score (AM-38 [13]): 0.0506
- HSA synergy score (SF268 [14]): 18.5
- HSA synergy score (SF539 [15]): 18.2
- HSA synergy score (U251 [16]): 4.63
- HSA synergy score (U118 [17]): 23
- HSA synergy score (KNS-42 [18]): 0.15
- Chou-Talalay combination index (U87 [19]): 0.683
- Chou-Talalay combination index (SNB75 [20]): 0.95
- Chou-Talalay combination index (KNS42 [21]): 1.04
- Chou-Talalay combination index (SF268 [22]): 0.786
- Chou-Talalay combination index (T98 [23]): 1.13
- Chou-Talalay combination index (SF539 [24]): 0.669
- Chou-Talalay combination index (U251 [25]): 0.677
- Chou-Talalay combination index (U118 [26]): 0.654
- Chou-Talalay combination index (AM38 [27]): 0.998
- Bliss synergy score (U87 [28]): 1.89
- Bliss synergy score (T98G [29]): 0
- Bliss synergy score (SNB75 [30]): 1.41
- Bliss synergy score (AM-38 [31]): 0.0506
- Bliss synergy score (SF268 [32]): 6.03
- Bliss synergy score (SF539 [33]): 4.47
- Bliss synergy score (U251 [34]): 0.62
- Bliss synergy score (U118 [35]): 2.62
- Bliss synergy score (KNS-42 [36]): 0
- Loewe synergy score (U87 [37]): 10
- Loewe synergy score (T98G [38]): 1.27
- Loewe synergy score (SNB75 [39]): 4.52
- Loewe synergy score (AM-38 [40]): 0.0506
- Loewe synergy score (SF268 [41]): 18.1
- Loewe synergy score (SF539 [42]): 16.9
- Loewe synergy score (U251 [43]): 4.63
- Loewe synergy score (U118 [44]): 22
- Loewe synergy score (KNS-42 [45]): 0.0119

SMILES: C=CCc1cccc(/C=N/NC(=O)CN2CCN(Cc3ccccc3)CC2)c1O [PAC-1]
- IC50 (absolute, viability) (U87 [1]): 7.18 µM
- IC50 (absolute, viability) (SNB75 [2]): 2.98 µM
- IC50 (absolute, viability) (KNS42 [3]): 17.8 µM
- IC50 (absolute, viability) (SF268 [4]): 2.97 µM
- IC50 (absolute, viability) (T98 [5]): 1.71 µM
- IC50 (absolute, viability) (CAS-1): > 100 µM
- IC50 (absolute, viability) (SF539 [6]): 3.06 µM
- IC50 (absolute, viability) (U251 [7]): 6.15 µM
- IC50 (absolute, viability) (U118 [8]): 5.44 µM
- IC50 (absolute, viability) (AM38 [9]): 0.404 µM
